Molecules are shown by their SMILES. Read-outs that look alike come from different tables or passages of the source.

What is called IC50 is the point on the concentration scale where inhibition reaches its midpoint.

The test system of series [1] is NK-92 MI cells. The series is described as follows: Cytotoxic protein levels in human NK cells (Western blot). It is filed as cell-based. Particulars: 50 μM, 12 hours. For orientation: In western blotting, separated proteins are transferred to a membrane and probed.
Experimental: The human NK cell line NK-92 MI (ATCC) was maintained in alpha minimum essential medium (MEM) without ribonucleosides and deoxyribonucleosides (Gibco) supplemented with final concentrations of 12-5% FBS, 12-5% horse serum (ATCC), 2 mM L-glutamine (Gibco), 1.5 g/L sodium bicarbonate (Gibco), 0.2 mM inositol (Sigma), 0.1 mM 2-mercaptoethanol (Gibco), and 0.02 mM folic acid (Sigma).
For protein analyses, tumor tissues from in vivo experiments, enriched NK cells from the spleen, and NK-92 MI cancer cell co-incubated samples were lysed with a buffer containing protease and phosphatase inhibitors (25 mM Tris-HCl, pH 7.4; 150 mM NaCl; 1% Nonidet P-40; 1 mM EDTA; and 5% glycerol with Pierce Halt Protease Inhibitor). Protein (50 mg) from total lysate was loaded and separated on a 4-20% SDS-PAGE and transferred overnight to polyvinylidene difluoride membranes. Membranes were incubated with primary Ab for 12 hours at 4° C. in blocking buffer, 5% w/v nonfat dry milk in TBS, and 0.1% Tween 20. The following primary antibodies were purchased from Santa Cruz Biotechnology (Santa Cruz, CA): anti-perforin rabbit polyclonal (1:250), anti-granzyme B mouse monoclonal (1:200), anti-IFN-γ mouse monoclonal (1:250), anti-Snail (1:200), anti-Slug (1:200), and anti-Twist. Anti-E-cadherin (1:250), anti-N-cadherin (1:250), and anti-NKG2D goat polyclonal (1:500) were all from Abcam (Cambridge, MA). […]
Series [2] concerns CT26 colon cancer cells. In words: CT26 colon cancer subcutaneous tumors in BALB/c mice. It is filed as in vivo, mouse. The note with it: male and female mice.
Experimental: Balb/c mice (both male and female) were obtained from Taconic Biosciences and injected with 1×10^6 cells of CT26. Once palpable tumors develop (˜50 mm3), animals were allocated into 6 groups (3 mice/group). […] Mice were monitored every day. Tumor volume and mice weight were measured daily. Animals were euthanized when the tumor reached 2,000 mm^3. […] For tumor growth study, Mouse CT26 colon cancer cells were grown until about 90% confluence just 1 day before injection. […] Three dimensions of tumor were measured using electronic calipers, and tumor volumes were calculated by the formula as, L×W^2/2. The mean±SE of tumor volume was calculated weekly for each experimental group and the data are expressed as mean absolute tumor volume.
For series [3], the system named is MDA-MB-231, MDA-MB-468, and T47D cells. The series is described as follows: Transwell cell migration assay. The note with it: 100 μM, 12 hours. It is filed as cell-based, human. The procedure:
Cell migration assay was performed following the procedure described previously (26). In brief, the upper insert chambers (8-μm pore polycarbonate membrane) were seeded with cells at a density of 5×10^4 cells (cell numbers established by preliminary experiments) per well in the appropriate serum-free medium. A 10% FBS-containing media was then added to the lower chamber to serve as a chemoattractant. […] The photographs were used to count the number of migrated cells in Adobe Photoshop.

The test system is the same in series [4]. The series is described as follows: Western blot of apoptotic regulatory proteins in breast cancer cells. Type of series: cell-based, human. Particulars: 100-μM, 48 hours (Example 9). The procedure: For protein analyses, tumor tissues from in vivo experiments, enriched NK cells from the spleen, and NK-92 MI cancer cell co-incubated samples were lysed with a buffer containing protease and phosphatase inhibitors (25 mM Tris-HCl, pH 7.4; 150 mM NaCl; 1% Nonidet P-40; 1 mM EDTA; and 5% glycerol with Pierce Halt Protease Inhibitor). Protein ([…]) from total lysate was loaded and separated on a 4-20% SDS-PAGE and transferred overnight to polyvinylidene difluoride membranes. Membranes were incubated with primary Ab for 12 hours at 4° C. in blocking buffer, 5% w/v nonfat dry milk in TBS, and 0.1% Tween 20. The following primary antibodies were purchased from Santa Cruz Biotechnology (Santa Cruz, CA): anti-perforin rabbit polyclonal (1:250), anti-granzyme B mouse monoclonal (1:200), anti-IFN-γ mouse monoclonal (1:250), anti-Snail (1:200), anti-Slug (1:200), and anti-Twist. Anti-E-cadherin (1:250), anti-N-cadherin (1:250), and anti-NKG2D goat polyclonal (1:500) were all from Abcam (Cambridge, MA). Membranes were washed and incubated with peroxidase-conjugated secondary Abs (1:5000; Vector Laboratories) for 1 hour at room temperature. Membranes were incubated with ECL western blot chemiluminescence reagent (Pierce) and exposed to x-ray film, which was developed, and densitometry was performed using Image J analysis software (National Institutes of Health). Each protein was normalized to corresponding intensities for β-actin.
The effects on apoptotic regulatory protein levels and signaling pathway were determined by treating MDA-MB-231, MDA-MB-468, and T47D cells with a 100-μM concentration of the drugs alone or in combination or vehicle alone for 48 hours. After the treatment period, cell were extracted and used for Western blot analysis of anti-apoptotic p-Bcl-xL and p-Bcl2, effector proteins such as p-Bax, pro-apoptotic molecule p-Bim, effector caspase 3 and Cytochrome c levels. Representative blots and mean densitometric values are presented as ratio of β-actin in the histograms. Data presented are mean±SEM (n=5-6 samples/group) and were analyzed using one-way ANOVA with the Newman-Keuls multiple comparisons post hoc test.

The test system of series [5] is MDA-MB-468 cells. In words: cells. Particulars: read-out: Cell Viability IC50 (μM) ± SEM. The procedure: (§1) Cells in media with vehicle treatment are considered control wells. MTT (3-(4,5-dimethyl-2-thiazolyl)-2,5-diphenyl-2H-tetrazolium bromide) was prepared as a stock solution of 5 mg/mL in 1× phosphate-buffered saline (PBS, pH 7.2). At the end of the drug treatment period (24 or 48 or 72 hours), 10 μL of MTT solution was added to each well. After incubation for 4 hours at 37° C., 100 μL of solubilizing buffer (10% sodium dodecyl sulfate dissolved in 0.01 N HCl) was added to each well. After a 15-minute incubation at 37° C., the 96-well plate was read by a plate reader at 590 nm for absorbance density values to determine the cell viability. The cell viability (percentage of control) is calculated by using the following formula: (OD of treated well (−blank))/(mean OD control well (−blank))×100. […] Drug effects on these cells were determined in quadruplicate wells in three independent experiments.

In series [6] the test system is MDA-MB-231 cells. The series is described as follows: cells. Particulars: read-out: Cell Viability IC50 (μM) ± SEM. As for the experimental part:
as §1

The subject of series [7] is T47D cells. The series is described as follows: cells. As for the experimental part:
as §1

The subject of series [8] is MDA-MB-231, MDA-MB-468, and T47D cells. Particulars: read-out: IC50 dose; range over cell lines and time of treatment (24, 48, 72 hours). As for the experimental part: as §1
Series [9] deals with MDA-MB-468 and T47D cells. The series is described as follows: Cell cycle analysis (PI staining). Type of series: cell-based, human. Particulars: 100 μM. As for the experimental part: Cell cycle analysis of breast cancer cells was carried out using propidium iodide (PI) staining protocol according to the manufacturer's instructions (Nexcelom Bioscience LLC, Lawrence, MA). […] Then, cells were harvested by trypsinization, centrifuged at 2000 rpm for 5 minutes, washed with PBS (pH 7.4), and fixed in ice cold 100% ethanol for 15 minutes. The cells were spun down and resuspended in 150 μl of PI-staining solution provided with the Cellometer PI Cell Cycle Kit. The PI-stained cells were then subjected to analysis in the Cellometer Vision instrument (Nexcelom Bioscience LLC) and the data was captured on Cellometer Vision CBA software (Nexcelom Bioscience LLC) and analyzed by FCS Express 4 software (Molecule Devices, Corp., Sunnyvale, CA). Differences in fluorescence intensity were used to determine the percentage of cells in each phase of the cell cycle and represented as histograms for control and drug-treated samples.

For series [10] the following is noted: cited from earlier work.

For `CC(C)NCC(O)COc1cccc2ccccc12` (stereo not drawn) [PRO, propranolol], in series [1], the “granzyme B levels” value is listed as “moderately elevated” and the perforin levels result is recorded as “moderately elevated”. For the same compound, the tumor volume entry in series [2] is “decreasing tumor volume”. Also, in series [3], the cell migration result is given as “significant but moderate inhibitory effects”. For the same compound, in [4], the “anti-apoptotic Bcl-xL, p-Bcl-xL, Bcl-2, and p-Bcl-2” value is on record as “downregulated”; the “levels of Bax, p-Bax and p-Bim” value is reported as “increased”; the “levels of Cytochrome c” value is recorded as “increased”.
Consider `CC1(C)SSC(C)(C)[C@@H](NC(=O)[C@@H](N)Cc2ccc(O)cc2)C(=O)NCC(=O)N[C@@H](Cc2ccccc2)C(=O)N[C@H]1C(=O)O` [DPDPE, (D-Pen^2, D-Pen^5)-enkephalin], for which the cell migration result in series [3] is “significant but moderate inhibitory effects”. The half-maximal inhibitory concentration (IC50) is 115 ± 1.23 µM in series [5] (MDA-MB-468, 24 h); 118 ± 1.22 µM in [5] (MDA-MB-468, 48 h); 120 ± 2.19 µM in series [5] (MDA-MB-468, 72 h); 140.4 ± 0.39 µM in series [6] (MDA-MB-231, 24 h); 120.8 ± 0.36 µM in [6] (MDA-MB-231, 48 h); 119.9 ± 1.07 µM in [6] (MDA-MB-231, 72 h). Further, the half-maximal inhibitory concentration (IC50) in series [7] (read-out: Cell Viability IC50 (μM) ± SEM, 24 h) was 125.1 ± 1.21 µM; in series [7] (read-out: Cell Viability IC50 (μM) ± SEM, 48 h) it was 120.2 ± 1.17 µM; in series [7] (read-out: Cell Viability IC50 (μM) ± SEM, 72 h), 120.46 ± 0.04 µM; in series [8] it was 115 to 140 µM.
As to `O=C1CC[C@@]2(O)[C@H]3Cc4ccc(O)c5c4[C@@]2(CCN3CC2CC2)[C@H]1O5` [NTX, 17-(cyclopropylmethyl)-4,5α-epoxy-3,14-dihydroxymorphinan-6-one], in [3], the cell migration result was “significant but moderate inhibitory effects”. Also, the 50% inhibitory concentration (IC50) in series [5] (Homo sapiens, MDA-MB-468, 24 h) came to 122.4 ± 0.63 µM; in series [5] (Homo sapiens, MDA-MB-468, 48 h) it was 121 ± 1.82 µM; in series [5] (Homo sapiens, MDA-MB-468, 72 h) it was 120 ± 1.23 µM; in series [6] (Homo sapiens, MDA-MB-231, 24 h) it was 140.8 ± 0.15 µM; in series [6] (Homo sapiens, MDA-MB-231, 48 h), 120.5 ± 0.38 µM; in [6] (Homo sapiens, MDA-MB-231, 72 h), 121 ± 1.65 µM. Further, the concentration for half-maximal inhibition (IC50) in series [7] (Homo sapiens, 24 h, read-out: Cell Viability IC50 (μM) ± SEM) was 125 ± 1.37 µM; in [7] (Homo sapiens, 48 h, read-out: Cell Viability IC50 (μM) ± SEM), 122 ± 1.72 µM; in series [7] (Homo sapiens, 72 h, read-out: Cell Viability IC50 (μM) ± SEM), 120 ± 1.61 µM. Moreover, the “number of cells in the G0/G1 cycle” value in [9] is on record as “moderately but not significantly reduced”. For the same compound, the water solubility result in [10] is “not water soluble”. Moreover, the “anti-apoptotic Bcl-xL, p-Bcl-xL, Bcl-2, and p-Bcl-2” value in [4] is “downregulated”. The “levels of Bax, p-Bax and p-Bim” value in series [4] is “increased”. Also, in series [4], the “levels of Cytochrome c” value is reported as “increased”.
